Read-outs that look alike come from different tables or passages of the source.
Tests used:
Type in all cases: biochemical
PI3K alfa = molecular target: T1, PI3K alfa (Homo sapiens, UniProt P42336); assay: PI3 kinase assay (Kinase-Glo luminescence), PI3K alfa
T1 construct: for the p110-a subunit (with a deletion of the first 20 amino acids); His tag (C); made in house; host or cells: baculovirus; Tn5 (Trichoplusia ni) or TiniPro insect cells
Protocol: (§1) In a more preferred assay, the kinase reaction is performed in a final volume of 10 μL per well of a low volume non binding CORNING, 384 well black plate (Cat. No. #3676). The final concentrations of ATP and phosphatidyl inositol (PI) in the assay are 1 μM and 10 μg/mL respectively. The reaction is started by the addition of ATP.
(§2) The components of the assay are added per well as follows:
(§3) 50 nL test compounds in 90% DMSO per well, in columns 1-20, 8 concentrations (1/3 and 1/3.33 serial dilution step) in single. • Low control: 50 nL of 90% DMSO in half the wells of columns 23-24 (0.45% in final). • High control: 50 nL of reference compound (e.g. compound of Example 7 in WO 2006/122806, incorporated by reference hereinin that regard) in the other half of columns 23-24 (2.5 μM in final). • Standard: 50 nL of reference compound as just mentioned diluted as the test compounds in columns 21-22 • 20 mL ‘buffer’ are prepared per assay: • 200 μL of 1M TRIS HCl pH7.5 (10 mM in final) • 60 μL of 1M MgCl2 (3 mM in final) • 500 μL of 2M NaCl (50 mM in final) • 100 μL of 10% CHAPS (0.05% in final) • 200 μL of 100 mM DTT (1 mM in final) • 18.94 mL of nanopure water • 10 mL ‘PI’ are prepared per assay: • 200 μL of 1 mg/ml L-alpha-Phosphatidylinositol (Liver Bovine, Avanti Polar Lipids Cat. No. 840042C MW=909.12) prepared in 3% OctylGlucoside (10 μg/ml in final) • 9.8 mL of ‘buffer’ • 10 mL ‘ATP’ are prepared per assay: • 6.7 μL of 3 mM stock of ATP giving a final concentration of 1 μM per well • 10 mL of ‘buffer’ • 2.5 mL of each PI3K construct are prepared per assay in ‘PI’ with the following final concentration : • 10 nM PI3K alfa B-1075 • 25 nM beta BV-949 • 10 nM delta BV-1060 • 150 nM gamma BV-950 • 5 μL of ‘PI/PI3K’ are added per well. • 5 μl ‘ATP’ are added per well to start the reaction. • The plates are then incubated at room temperature for 60 minutes (alfa, beta, delta) or 120 minutes (gamma). • The reaction is terminated by the addition of 10 μL Kinase-Glo (Promega Cat. No. #6714). • The assay plates are read after 10 minutes in Synergy 2 reader (BioTek, Vermont USA) with an integration time of 100 milliseconds and sensitivity set to 191. • Output : The High control is around 60'000 counts and the Low control is 30'000 or lower • This luminescence assay gives a useful Z′ ratio between 0.4 and 0.7
(§4) […] is determined by a four parameter curve fitting routine that comes aloneg with “excel fit”. A 4 Parameter logistic equation is used to calculate IC50 values (IDBS XLfit) of the percentage inhibition of each compound at 8 concentrations (usually 10, 3.0, 1.0, 0.3, 0.1, 0.030, 0.010 and […]). Alternatively, IC50 values are calculated using idbsXLfit model 204, which is a 4 parameter logistic model.
(§5) Testing with the following kinases in the test system mentioned above, with the kinases given in the following tables, the following IC 50 data can be obtained: […]

PI3K beta = molecular target: T2, PI3K beta (Homo sapiens, UniProt P42338); assay: PI3 kinase assay (Kinase-Glo luminescence), PI3K beta; conditions: Enzymatic Data; read-out: PI3K beta IC50 [umol]
T2 construct: for the full-length p110-b subunit are generated and fused by overlapping PCR; His tag (C); made in house; host or cells: baculovirus; Tn5 (Trichoplusia ni) or TiniPro insect cells
Protocol: as §1, §2, §3, §4, §5

PI3K delta = molecular target: T3, PI3K delta (Homo sapiens, UniProt O00329); assay: PI3 kinase assay (Kinase-Glo luminescence), PI3K delta; conditions: Enzymatic Data; read-out: PI3K delta IC50 [umol]
T3 construct: for the full-length p110-d subunit are generated and fused by overlapping PCR; His tag (C); made in house; host or cells: baculovirus; Tn5 (Trichoplusia ni) or TiniPro insect cells
Protocol: as §1, §2, §3, §4, §5

PI3K gamma = molecular target: T4, PI3K gamma (Homo sapiens, UniProt P48736); assay: PI3 kinase assay (Kinase-Glo luminescence), PI3K gamma; conditions: Enzymatic Data; read-out: PI3K gamma IC50 [umol]
T4 construct: PI3Kγ BV-950 p110g(D144aa)-C-Term His Tag; His tag (C); made in house; host or cells: construct from the Roger Williams lab (MRC LMB) in pVL1393; baculovirus; Tn5 (Trichoplusia ni) or TiniPro insect cells
Protocol: as §1, §2, §4

[1] = Enzymatic Data, read-out: PI3K alfa IC50 [umol]

T2 sequence (P42338 with tags, fused parts or gaps limits assumed): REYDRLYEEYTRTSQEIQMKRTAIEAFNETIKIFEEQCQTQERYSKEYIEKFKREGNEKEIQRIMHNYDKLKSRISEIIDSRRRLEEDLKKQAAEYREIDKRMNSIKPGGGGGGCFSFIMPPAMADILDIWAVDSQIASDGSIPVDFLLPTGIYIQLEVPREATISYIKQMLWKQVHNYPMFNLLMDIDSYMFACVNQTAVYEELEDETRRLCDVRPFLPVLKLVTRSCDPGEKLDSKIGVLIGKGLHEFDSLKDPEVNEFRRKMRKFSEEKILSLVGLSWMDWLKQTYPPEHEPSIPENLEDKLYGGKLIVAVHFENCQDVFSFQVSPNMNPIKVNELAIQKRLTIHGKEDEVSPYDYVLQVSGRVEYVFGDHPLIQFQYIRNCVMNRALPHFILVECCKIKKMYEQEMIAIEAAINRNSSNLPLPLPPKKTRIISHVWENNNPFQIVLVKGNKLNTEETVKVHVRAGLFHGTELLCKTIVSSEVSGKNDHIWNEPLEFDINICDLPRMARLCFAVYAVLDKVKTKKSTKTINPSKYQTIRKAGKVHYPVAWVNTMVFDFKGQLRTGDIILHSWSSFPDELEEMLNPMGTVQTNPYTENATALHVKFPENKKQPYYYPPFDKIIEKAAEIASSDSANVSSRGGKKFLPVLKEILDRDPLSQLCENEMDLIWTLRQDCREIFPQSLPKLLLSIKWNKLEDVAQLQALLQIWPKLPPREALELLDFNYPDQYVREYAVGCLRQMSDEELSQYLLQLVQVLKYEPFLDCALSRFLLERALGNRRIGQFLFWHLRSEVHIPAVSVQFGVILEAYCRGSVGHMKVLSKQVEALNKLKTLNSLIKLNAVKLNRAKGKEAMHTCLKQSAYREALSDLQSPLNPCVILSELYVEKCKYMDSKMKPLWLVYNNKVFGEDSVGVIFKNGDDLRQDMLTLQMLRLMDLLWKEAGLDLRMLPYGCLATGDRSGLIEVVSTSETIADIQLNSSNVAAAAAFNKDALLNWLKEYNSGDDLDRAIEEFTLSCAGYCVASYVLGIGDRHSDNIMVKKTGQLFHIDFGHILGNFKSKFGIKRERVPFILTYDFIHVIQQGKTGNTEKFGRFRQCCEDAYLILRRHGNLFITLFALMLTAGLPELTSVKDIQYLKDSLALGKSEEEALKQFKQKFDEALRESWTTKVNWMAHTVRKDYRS
T3 sequence (O00329 with tags, fused parts or gaps limits assumed): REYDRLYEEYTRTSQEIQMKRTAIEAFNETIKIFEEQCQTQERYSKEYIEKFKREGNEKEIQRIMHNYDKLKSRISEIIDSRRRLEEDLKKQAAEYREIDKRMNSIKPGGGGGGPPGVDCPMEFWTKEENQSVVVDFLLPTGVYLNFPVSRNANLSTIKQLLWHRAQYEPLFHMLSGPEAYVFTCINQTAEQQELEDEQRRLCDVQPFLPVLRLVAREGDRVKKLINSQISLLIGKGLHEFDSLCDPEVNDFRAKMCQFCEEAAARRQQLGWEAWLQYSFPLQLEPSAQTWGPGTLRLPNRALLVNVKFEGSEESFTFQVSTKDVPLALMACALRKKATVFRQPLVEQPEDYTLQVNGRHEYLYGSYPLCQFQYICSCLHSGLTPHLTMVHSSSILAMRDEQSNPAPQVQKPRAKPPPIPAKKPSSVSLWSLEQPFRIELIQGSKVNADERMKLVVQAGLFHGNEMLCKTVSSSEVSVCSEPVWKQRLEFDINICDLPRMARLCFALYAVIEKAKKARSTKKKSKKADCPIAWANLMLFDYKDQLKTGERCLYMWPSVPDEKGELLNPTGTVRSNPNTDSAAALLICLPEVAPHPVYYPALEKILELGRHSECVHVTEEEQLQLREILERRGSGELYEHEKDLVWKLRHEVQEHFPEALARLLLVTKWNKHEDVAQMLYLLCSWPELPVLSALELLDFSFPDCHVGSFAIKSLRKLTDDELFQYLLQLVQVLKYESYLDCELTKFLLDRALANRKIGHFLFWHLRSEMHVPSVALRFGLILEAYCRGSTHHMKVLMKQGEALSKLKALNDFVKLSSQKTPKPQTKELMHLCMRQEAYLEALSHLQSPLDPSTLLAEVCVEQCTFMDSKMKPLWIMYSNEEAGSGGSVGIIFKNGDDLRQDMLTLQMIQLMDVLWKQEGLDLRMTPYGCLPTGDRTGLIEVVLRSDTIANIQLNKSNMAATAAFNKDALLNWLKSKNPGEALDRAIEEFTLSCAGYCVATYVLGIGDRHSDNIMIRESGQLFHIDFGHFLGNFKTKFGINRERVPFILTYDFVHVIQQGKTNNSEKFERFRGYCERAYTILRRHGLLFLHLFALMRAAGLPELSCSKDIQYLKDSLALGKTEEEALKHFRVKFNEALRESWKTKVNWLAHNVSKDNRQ
T1 sequence (P42336 with tags, fused parts or gaps limits assumed): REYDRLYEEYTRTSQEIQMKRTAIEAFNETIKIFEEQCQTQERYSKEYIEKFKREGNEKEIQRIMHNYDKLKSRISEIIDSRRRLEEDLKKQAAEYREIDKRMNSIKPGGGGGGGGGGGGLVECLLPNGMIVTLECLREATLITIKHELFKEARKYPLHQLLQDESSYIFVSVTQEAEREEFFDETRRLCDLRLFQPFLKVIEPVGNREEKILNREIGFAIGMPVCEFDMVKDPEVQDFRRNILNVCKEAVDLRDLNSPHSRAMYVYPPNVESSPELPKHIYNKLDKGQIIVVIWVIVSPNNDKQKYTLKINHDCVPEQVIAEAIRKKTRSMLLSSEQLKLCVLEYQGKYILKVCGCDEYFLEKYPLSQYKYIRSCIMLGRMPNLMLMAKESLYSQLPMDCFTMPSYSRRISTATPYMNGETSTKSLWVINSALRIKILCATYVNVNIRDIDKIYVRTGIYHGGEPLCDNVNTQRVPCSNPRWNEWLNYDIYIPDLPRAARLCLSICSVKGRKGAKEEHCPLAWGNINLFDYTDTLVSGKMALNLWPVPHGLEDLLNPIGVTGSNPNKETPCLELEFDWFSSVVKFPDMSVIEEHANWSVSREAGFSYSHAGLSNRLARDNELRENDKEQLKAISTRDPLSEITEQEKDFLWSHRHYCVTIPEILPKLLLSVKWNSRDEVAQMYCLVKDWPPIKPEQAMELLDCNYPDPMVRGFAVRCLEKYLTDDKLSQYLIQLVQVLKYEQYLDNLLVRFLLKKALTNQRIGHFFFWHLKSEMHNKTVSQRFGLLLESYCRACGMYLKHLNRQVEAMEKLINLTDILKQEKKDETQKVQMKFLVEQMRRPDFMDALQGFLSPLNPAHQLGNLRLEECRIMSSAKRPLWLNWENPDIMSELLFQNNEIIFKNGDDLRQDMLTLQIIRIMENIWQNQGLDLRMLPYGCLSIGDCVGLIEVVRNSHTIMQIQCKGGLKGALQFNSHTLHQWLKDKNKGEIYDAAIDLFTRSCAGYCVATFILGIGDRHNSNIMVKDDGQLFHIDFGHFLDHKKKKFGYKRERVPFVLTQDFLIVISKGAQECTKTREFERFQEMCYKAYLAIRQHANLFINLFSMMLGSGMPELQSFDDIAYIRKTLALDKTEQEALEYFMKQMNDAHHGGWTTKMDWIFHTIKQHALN
T4 sequence (P48736 144-1102 limits assumed): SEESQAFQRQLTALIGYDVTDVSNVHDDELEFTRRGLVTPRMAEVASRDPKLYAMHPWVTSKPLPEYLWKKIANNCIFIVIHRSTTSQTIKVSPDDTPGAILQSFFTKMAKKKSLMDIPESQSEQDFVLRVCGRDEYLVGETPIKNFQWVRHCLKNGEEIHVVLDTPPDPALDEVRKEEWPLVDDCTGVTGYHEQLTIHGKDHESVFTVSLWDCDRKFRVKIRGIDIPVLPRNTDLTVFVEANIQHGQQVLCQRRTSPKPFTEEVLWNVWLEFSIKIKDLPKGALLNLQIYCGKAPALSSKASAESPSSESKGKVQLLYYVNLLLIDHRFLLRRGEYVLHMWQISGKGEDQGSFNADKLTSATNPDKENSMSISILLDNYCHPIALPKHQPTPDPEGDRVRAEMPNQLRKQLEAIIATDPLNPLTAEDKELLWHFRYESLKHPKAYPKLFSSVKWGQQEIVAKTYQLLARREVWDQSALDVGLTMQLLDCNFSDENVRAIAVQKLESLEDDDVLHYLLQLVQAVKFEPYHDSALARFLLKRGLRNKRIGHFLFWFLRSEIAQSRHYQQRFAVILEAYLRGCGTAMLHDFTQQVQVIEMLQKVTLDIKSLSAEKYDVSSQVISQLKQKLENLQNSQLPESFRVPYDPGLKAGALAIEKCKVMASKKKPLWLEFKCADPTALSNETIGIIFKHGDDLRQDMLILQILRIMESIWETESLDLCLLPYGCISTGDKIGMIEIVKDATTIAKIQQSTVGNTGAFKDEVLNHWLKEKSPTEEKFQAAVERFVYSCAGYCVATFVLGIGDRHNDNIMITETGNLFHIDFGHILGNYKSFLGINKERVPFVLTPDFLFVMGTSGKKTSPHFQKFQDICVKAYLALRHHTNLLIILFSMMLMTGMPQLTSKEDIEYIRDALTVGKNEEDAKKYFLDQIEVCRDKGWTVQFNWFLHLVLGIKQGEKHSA

Structure (SMILES)	IC50 (PI3K alfa; read-out: IC50 (μm) PI3K-alfa) [nM]	other results
COc1ccc(-c2ccc3ncc(-c4ccc(OC)c(OC)c4)n3n2)cc1OC [Example 1, 3,6-Bis-(3,4-dimethoxy-phenyl)-imidazo[1,2-b]pyridazine]	3	
COc1ccc(-c2ccc3ncc(-c4ccc(S(C)(=O)=O)cc4)n3n2)cc1OC [Example 5, 6-(3,4-Dimethoxy-phenyl)-3-(4-methanesulfonyl-phenyl)-imidazo[1,2-b]pyridazine]	1.64	
CCOC(=O)c1cc(-c2ccc3ncc(-c4ccc(OC)c(OC)c4)n3n2)ccc1OC [Example 8, 5-[3-(3,4-Dimethoxy-phenyl)-imidazo[1,2-b]pyridazin-6-yl]-2-methoxy-benzoic acid ethyl ester]	6	
COc1ccccc1-c1ccc2ncc(-c3ccc(C(N)=O)cc3)n2n1 [Example 9, 4-[6-(2-Methoxy-phenyl)-imidazo[1,2-b]pyridazin-3-yl]-benzamide]	854	
COc1ccc(-c2cnc3ccc(-c4ccc(OCCO)c(C(C)=O)c4)nn23)cc1OC [Example 16, 1-[5-[3-(3,4-Dimethoxy-phenyl)-imidazo[1,2-b]pyridazin-6-yl]-2-(2-hydroxy-ethoxy)-phenyl]-ethanone]	135	
COc1ccc(-c2ccc3ncc(-c4ccc(-c5ccoc5)cc4)n3n2)cc1OC [Example 19, 6-(3,4-Dimethoxy-phenyl)-3-(4-furan-3-yl-phenyl)-imidazo[1,2-b]pyridazine]	120	
COc1ccc(-c2ccc3ncc(-c4ccc(-c5ccc[nH]5)cc4)n3n2)cc1OC [Example 20, 6-(3,4-Dimethoxy-phenyl)-3-[4-(1H-pyrrol-2-yl)-phenyl]-imidazo[1,2-b]pyridazine]	122	
COc1cc(-c2cnc3ccc(-c4ccc(C(N)=O)cc4)nn23)ccc1OCCCNC(=O)OC(C)(C)C [Example 21, (3-{4-[6-(4-Carbamoyl-phenyl)-imidazo[1,2-b]pyridazin-3-yl]-2-methoxy-phenoxy}-propyl)-carbamic acid tert-butyl ester]	292	
CCS(=O)(=O)c1ccc(-c2cnc3ccc(-c4cnc(N)c(C(F)(F)F)c4)nn23)cc1 [Example 33, 5-[3-(4-Ethanesulfonyl-phenyl)-imidazo[1,2-b]pyridazin-6-yl]-3-trifluoro-methyl-pyridin-2-ylamine]		IC50 (PI3K beta): 240 nM; IC50 (PI3K delta): 103 nM; IC50 (PI3K gamma): 1220 nM; IC50 (PI3K alfa; [1]): 63 nM
COc1ccc(-c2ccc3ncc(-c4ccc(N)nc4)n3n2)cc1OC [Example 34, 5-[6-(3,4-Dimethoxy-phenyl)-imidazo [1,2-b]pyridazin-3-yl]-pyridin-2-ylamine]		IC50 (PI3K beta): 718 nM; IC50 (PI3K delta): 143 nM; IC50 (PI3K gamma): 1310 nM; IC50 (PI3K alfa; [1]): 103 nM
CC(C)(C)OC(=O)NCCCOc1ccc(-c2ccc3ncc(-c4cnc(N)c(C(F)(F)F)c4)n3n2)cc1OC(F)(F)F [Example 55]		IC50 (PI3K beta): > 9100 nM; IC50 (PI3K delta): > 9100 nM; IC50 (PI3K alfa; [1]): 6120 nM
Nc1ncc(-c2cnc3ccc(-c4cnc(N)c(C(F)(F)F)c4)nn23)cn1 [Example 79, 5-[6-(6-Amino-5-trifluoro-methyl-pyridin-3-yl)-imidazo [1,2-b]pyridazin-3-yl]-pyrimidin-2-ylamine]		IC50 (PI3K beta): 4 nM; IC50 (PI3K delta): 9 nM; IC50 (PI3K alfa; [1]): 15 nM

The next lines start with results.

IC50 (PI3K alfa; read-out: IC50 (μm) PI3K-alfa) [nM]	Structure (SMILES)	other results
3	Nc1ncc(-c2ccc3ncc(-c4cnc(N)c(C(F)(F)F)c4)n3n2)cc1C(F)(F)F [Example 6]	
14	NC(=O)c1ccc(-c2ccc3ncc(-c4ccc(C(N)=O)cc4)n3n2)cc1 [Example 7, 4-[3-(4-Carbamoylphenyl)-imidazo[1,2-b]pyridazin-6-yl]-benzamide]	
118	COc1cc(-c2ccc3ncc(-c4cnc(N)c(C(F)(F)F)c4)n3n2)ccc1OCCCNC(=O)OC(C)(C)C [Example 10, (3-{4-[3-(6-Amino-5-trifluoromethyl-pyridin-3-yl)-imidazo[1,2-b]pyridazin-6-yl]-2-methoxy-phenoxy}-propyl)-carbamic acid tert-butyl ester]	
372	NC(=O)c1ccc(-c2ccc3ncc(-c4cnc(N)c(C(F)(F)F)c4)n3n2)cc1 [Example 11, 4-[3-(6-Amino-5-trifluoromethyl-pyridin-3-yl)-imidazo[1,2-b]pyridazin-6-yl]-benzamide]	
39	COc1cc(-c2ccc3ncc(-c4cnc(N)c(C(F)(F)F)c4)n3n2)ccc1OCCCN [Example 14, 5-{6-[4-(3-Amino-propoxy)-3-methoxy-phenyl]-imidazo[1,2-b]pyridazin-3-yl}-3-trifluoromethyl-pyridin-2-ylamine]	
53	COc1cc(-c2ccc3ncc(-c4ccc(C(N)=O)cc4)n3n2)ccc1OCCCN [Example 17, 4-{6-[4-(3-Amino-propoxy)-3-methoxy-phenyl]-imidazo[1,2-b]pyridazin-3-yl}-benzamide]	
9.5	CS(=O)(=O)c1ccc(-c2cnc3ccc(-c4cnc(N)c(C(F)(F)F)c4)nn23)cc1 [Example 18, 5-[3-(4-Methanesulfonyl-phenyl)-imidazo[1,2-b]pyridazin-6-yl]-3-trifluoro-methyl-pyridin-2-ylamine]	
1.4	Nc1ncc(-c2ccc3ncc(-c4ccc(F)nc4)n3n2)cc1C(F)(F)F [Example 27, 5-[3-(6-Fluoro-pyridin-3-yl)-imidazo[1,2-b]pyridazin-6-yl]-3-trifluoromethyl-pyridin-2-ylamine]	
12	Nc1ncc(-c2ccc3ncc(-c4ccc(Nc5nc(-c6ccccc6)cs5)nc4)n3n2)cc1C(F)(F)F [Example 28, 5-{3-[6-(4-Phenyl-thiazol-2-ylamino)-pyridin-3-yl]-imidazo[1,2-b]pyridazin-6-yl}-3-trifluoromethyl-pyridin-2-ylamine]	
7	CC(C)N1CCC(Oc2ccc(-c3cnc4ccc(-c5cnc(N)c(C(F)(F)F)c5)nn34)cn2)CC1 [Example 29, 5-{3-[6-(1-Isopropyl-piperidin-4-yloxy)-pyridin-3-yl]-imidazo[1,2-b]pyridazin-6-yl}-3-trifluoromethyl-pyridin-2-ylamine]	
2.3	Nc1ncc(-c2ccc3ncc(-c4ccc(NCc5ccccc5)nc4)n3n2)cc1C(F)(F)F [Example 30, 5-[3-(6-Benzylamino-pyridin-3-yl)-imidazo[1,2-b]pyridazin-6-yl]-3-trifluoro-methyl-pyridin-2-ylamine]	
4.5	Nc1ncc(-c2ccc3ncc(-c4ccc(N5CCOCC5)nc4)n3n2)cc1C(F)(F)F [Example 31, 5-[3-(6-Morpholin-4-yl-pyridin-3-yl)-imidazo[1,2-b]pyridazin-6-yl]-3-trifluoromethyl-pyridin-2-ylamine]	
4.9	Nc1ncc(-c2ccc3ncc(-c4ccc(O)nc4)n3n2)cc1C(F)(F)F [Example 32, 5-[6-(6-Amino-5-trifluoromethyl-pyridin-3-yl)-imidazo[1,2-b]pyridazin-3-yl]-pyridin-2-ol]	
